{
  "source": "ChEMBL document CHEMBL3045212",
  "about": "“Synthesis of some imidazolyl-substituted 2-benzylidene indanone derivatives as potent aromatase inhibitors for breast cancer therapy” (Med Chem Res, 2011)",
  "key": {"[1]": {"target": "T1, Aromatase (Homo sapiens, UniProt P11511)", "T1 sequence (P11511 whole entry)": "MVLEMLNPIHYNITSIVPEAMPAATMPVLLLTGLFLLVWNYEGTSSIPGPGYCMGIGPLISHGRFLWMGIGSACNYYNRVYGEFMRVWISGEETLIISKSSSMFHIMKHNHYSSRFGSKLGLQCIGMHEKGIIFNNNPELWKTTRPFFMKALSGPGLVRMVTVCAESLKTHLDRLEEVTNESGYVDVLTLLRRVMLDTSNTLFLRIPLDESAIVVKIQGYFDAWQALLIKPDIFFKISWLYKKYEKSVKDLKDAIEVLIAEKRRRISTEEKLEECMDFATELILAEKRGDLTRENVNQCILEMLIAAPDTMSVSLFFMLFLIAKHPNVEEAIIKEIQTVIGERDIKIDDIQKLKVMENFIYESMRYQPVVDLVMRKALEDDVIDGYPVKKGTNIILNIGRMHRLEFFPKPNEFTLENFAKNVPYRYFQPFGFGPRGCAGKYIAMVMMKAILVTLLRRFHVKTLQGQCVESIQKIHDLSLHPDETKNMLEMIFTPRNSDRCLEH", "test": "Inhibition of Homo sapiens (human) aromatase assessed as 3H2O formation using [1beta,2beta-3H]testosterone as substrate at 36 uM by liquid scintillation counting analysis; call rule not given here"}, "[2]": {"target": "T1, Aromatase", "test": "Ratio of aminoglutethimide IC50 to compound IC50 for Homo sapiens (human) aromatase"}, "[3]": {"target": "T1, Aromatase", "test": "Inhibition of Homo sapiens (human) aromatase assessed as 3H2O formation using [1beta,2beta-3H]testosterone as substrate by liquid scintillation counting analysis"}},
  "data": [
    {"molecule": "COc1cc(/C=C2\\Cc3ccccc3C2=O)ccc1OCCCCl", "values": [
      {"measurement": "inhibition at 36 µM", "setting": "[1]", "value": 8.5, "unit": "%"}
    ]},
    {"molecule": "O=C1/C(=C/c2ccccc2OCCCn2ccnc2)Cc2ccccc21", "values": [
      {"measurement": "Ratio IC50", "setting": "[2]", "value": 26.6},
      {"measurement": "IC50", "setting": "[3]", "value": 1100, "unit": "nM"}
    ]},
    {"molecule": "O=C1/C(=C/c2cccc(OCCCn3ccnc3)c2)Cc2ccccc21", "values": [
      {"measurement": "Ratio IC50", "setting": "[2]", "value": 42.5},
      {"measurement": "IC50", "setting": "[3]", "value": 700, "unit": "nM"}
    ]},
    {"molecule": "COc1cc(/C=C2\\Cc3ccccc3C2=O)ccc1OCCN(C)C", "values": [
      {"measurement": "inhibition (INH)", "setting": "[1]; 36 µM", "value": "Not Active"}
    ]},
    {"molecule": "COc1ccc(/C=C2\\Cc3ccccc3C2=O)cc1OCCCCl", "values": [
      {"measurement": "inhibition at 36 µM", "setting": "[1]", "value": 8, "unit": "%"}
    ]},
    {"molecule": "COc1ccc(/C=C2\\Cc3ccccc3C2=O)cc1OCCCn1ccnc1", "values": [
      {"measurement": "Ratio IC50", "setting": "[2]", "value": 22.5},
      {"measurement": "IC50", "setting": "[3]", "value": 1340, "unit": "nM"}
    ]},
    {"molecule": "O=C1/C(=C/c2cccc(OCCCCl)c2)Cc2ccccc21", "values": [
      {"measurement": "inhibition at 36 µM", "setting": "[1]", "value": 13, "unit": "%"}
    ]},
    {"molecule": "COc1cc(/C=C2\\Cc3ccccc3C2=O)ccc1OCCCn1ccnc1", "values": [
      {"measurement": "Ratio IC50", "setting": "[2]", "value": 54.1}
    ]},
    {"molecule": "O=C1/C(=C/c2ccccc2OCCCCl)Cc2ccccc21", "values": [
      {"measurement": "inhibition at 36 µM", "setting": "[1]", "value": 8, "unit": "%"}
    ]},
    {"molecule": "O=C1/C(=C/c2c[nH]c3ccccc23)Cc2ccccc21", "values": [
      {"measurement": "inhibition at 36 µM", "setting": "[1]", "value": 6, "unit": "%"}
    ]}
  ]
}
